The record followed here is patent US12721838B2 (Henry Ford Health System, priority 2020, dated 2026).

“Also recorded” adds a separate entry of the source. Like-named read-outs stand apart in the source and are kept apart here. Where a SMILES comes first, the peptide text is derived from it. The star is where a group is joined. Cbz = O=C(OCc1ccccc1)*; CH2F = FC*

The target of test [1] is T1, Trib2-Luciferase (Luc-Trib2) fusion (Homo sapiens, UniProt Q92519).
T1 sequence (Q92519 with tags, fused parts or gaps): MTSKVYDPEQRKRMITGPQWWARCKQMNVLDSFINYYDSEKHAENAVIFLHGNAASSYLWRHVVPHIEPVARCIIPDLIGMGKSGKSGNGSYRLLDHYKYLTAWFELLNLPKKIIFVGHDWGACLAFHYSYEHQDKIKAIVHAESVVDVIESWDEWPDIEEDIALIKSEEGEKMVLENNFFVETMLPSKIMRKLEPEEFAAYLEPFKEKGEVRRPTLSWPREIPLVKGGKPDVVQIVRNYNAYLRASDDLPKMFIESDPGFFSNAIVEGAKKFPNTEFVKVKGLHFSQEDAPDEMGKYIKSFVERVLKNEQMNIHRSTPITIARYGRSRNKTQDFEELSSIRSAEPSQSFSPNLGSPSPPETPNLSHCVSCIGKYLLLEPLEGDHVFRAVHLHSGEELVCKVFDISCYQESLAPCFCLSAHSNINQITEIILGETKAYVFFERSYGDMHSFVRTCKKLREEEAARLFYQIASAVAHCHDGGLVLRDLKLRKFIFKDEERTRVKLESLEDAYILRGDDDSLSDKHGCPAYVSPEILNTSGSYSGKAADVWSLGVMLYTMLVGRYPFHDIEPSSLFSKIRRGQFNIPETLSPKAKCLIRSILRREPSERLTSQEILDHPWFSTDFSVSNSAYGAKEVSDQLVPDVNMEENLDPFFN
The conditions noted are these: for Luciferase activity (%): 10 µM; for inhibition of Trib2-luciferase activity (in words): 10 μM, 24 hours, HFF-Trib2-Luc cells.

The target in test [2] is T1, Trib2-Luciferase (Luc-Trib2) fusion. The test is described as follows: cell-based. The conditions noted are these: HFF, read-out: Luciferase activity (%).
For test [3], the system named is LNCaP-ENR cells. The test is described as follows: Apoptosis by Annexin V binding, flow cytometry. It counts as cell-based, human. How it is done:
To test DCV effects on cancer cell apoptosis, LNCaP-ENR cells were treated with 8 μM DCV for 24 hours and analyzed by flow cytometry. Treatment with DCV indicated increased Annexin V binding, a read-out for apoptosis (FIG. 3C).

A further test concerns the target T2, TRIB2 (Homo sapiens, UniProt Q92519).
T2 sequence (Q92519 1-343): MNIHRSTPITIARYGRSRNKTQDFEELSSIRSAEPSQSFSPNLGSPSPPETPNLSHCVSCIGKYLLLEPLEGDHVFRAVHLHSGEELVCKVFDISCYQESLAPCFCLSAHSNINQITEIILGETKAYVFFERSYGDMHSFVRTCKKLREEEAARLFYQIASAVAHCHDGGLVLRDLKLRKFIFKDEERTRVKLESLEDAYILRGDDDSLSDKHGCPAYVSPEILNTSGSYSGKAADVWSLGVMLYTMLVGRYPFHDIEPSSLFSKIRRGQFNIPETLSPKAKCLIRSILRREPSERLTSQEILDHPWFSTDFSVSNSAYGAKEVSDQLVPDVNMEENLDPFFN
The test is described as follows: Western blot of TRIB2 protein levels in cancer cells. The conditions noted are these: LNCaP-ENR cells, 10 μM, 24 hours, Western blot. Also noted: Whole cell lysate proteins were analyzed by Western blot; endogenous in cells; host or cells: LNCaP-ENR (enzalutamide-resistant LNCaP) cells. It counts as cell-based. The procedure:
Enzalutamide-resistant prostate cancer (ERPC) cells (LNCaP-ENR cells) were plated and treated with 10 μM each of various compounds for 24 hours. Exemplary methods for developing and using LNCaP-ENR cells is disclosed in Monga, J., Subramani, D., Bharathan, A., and Ghosh, J. (2020) “Pharmacological and genetic targeting of 5-lipoxygenase interrupts c-Myc oncogenic signaling and kills enzalutamide-resistant prostate cancer cells via apoptosis.” Scientific Reports 10: 6649, the disclosure of which is incorporated herein by reference in its entirety. Whole cell lysate proteins were analyzed by Western blot. TRIB2 antibody was used to detect protein levels of TRIB2 and GAPDH was used as loading control. Monoclonal anti-Trib2 antibody was purchased from Santa Cruz Biotech, Santa Cruz, CA.
LNCaP-ENR cells were treated with varying doses (4 μM, 8 μM, or 12 μM) of DCV for 24 hours. Effects on TRIB2 protein levels and its downstream targets (e.g., pAkt, Bcl-xL, Survivin, and FOXO3) were analyzed by Western blot. GAPDH was used as loading control. Protein levels of TRIB2, pAKT (S473), Bcl-xL, and Survivin were reduced in cells treated with 12 μM of DCV compared to control-treated cells (FIG. 3A). Levels of FOXO3 protein were increased at 12 μM of DCV treatment compared to control treatment. This was expected, as FOXO3 level is known to be decreased by Trib2. These effects on cellular protein levels were DCV concentration-dependent, with the most pronounced effects observed at the highest concentration tested (12 μM).
Background: In western blotting, separated proteins are transferred to a membrane and probed.

Test [4] deals with LNCaP-ENR and MR49F ERPC cells. The test is described as follows: In vitro invasion through extracellular matrix. The test is classed as cell-based, human. The conditions noted are these: LNCaP-ENR and MR49F ERPC cells (data not shown).
In test [5] the test system is LNCaP-ENR cells. The test is described as follows: MTS/PES cell viability assay, ERPC cells. It counts as cell-based, human. Conditions: LNCaP-ENR cells, varying doses, 72 hours, MTS/PES; listed as ledipasvir. How it is done: Plates were incubated for 72 hours at 37° C. in a CO2 incubator. Cell viability was measured by MTS/PES cell titer assay (Promega Corp., Madison, WI).

The subject of test [6] is LNCaP-ENR cells. The test is described as follows: Soft-agar colony formation assay. It counts as cell-based, human. The conditions noted are these: LNCaP-ENR (ERPC) cells, three weeks; DCV at 8 μM. The procedure: Effect of DCV on soft-agar colony formation was also analyzed. LNCaP-ENR cells (10,000 per well in 6-well plates) were plated in 0.3% soft-agar on top of a base layer of 0.6% agar. The cells were treated with DCV and incubated at 37° C. for three weeks in the CO2 incubator. Cells were given fresh media and drug every fourth day. At the end of the incubation period, colonies were stained with 0.025% crystal violet, and pictures of colonies were taken with a Nikon digital camera at ×200. Image processing was done using Q-Capture Pro-7 software. Exemplary methods of the foregoing technique can be found in Sarveswaran, Sivalokanathan et al. “Inhibition of 5-lipoxygenase downregulates stemness and kills prostate cancer stem cells by triggering apoptosis via activation of c-Jun N-terminal kinase.” Oncotarget vol. 10, 4 424-436. 11 Jan. 2019, the disclosure of which is incorporated herein by reference in its entirety.

A further test concerns Trib2-OE cells. In words: Enzalutamide sensitivity of Trib2-overexpressing prostate cancer cells. It counts as cell-based, human. The conditions noted are these: clinically relevant doses. An excerpt:
Prostate cancer cells were transfected with full length human gene to overexpress Trib2 (FIG. 18). […] Trib2 siRNA was used in parallel experiments as a positive control.

In the case of `CC[C@H]1[C@@H]2C[C@H]3[C@@H]4N(C)c5ccccc5[C@]45C[C@@H]([C@@H]2[C@H]5O)N3[C@@H]1O` [Ajamaline], the “Luciferase activity (%)” value in test [1] is 93%.

With `CC(C)CN(C[C@@H](O)[C@H](Cc1ccccc1)NC(=O)O[C@H]1CO[C@H]2OCC[C@H]21)S(=O)(=O)c1ccc(N)cc1` [Darunavir], the activity at 10 µM in test [2] turned out to be 93%. Further, the “inhibition of Trib2-luciferase activity (in words)” value (“inhibition” for short) in test [1] is “completely ineffective; also recorded: not effective”.

Consider `NS(=O)(=O)c1cc(Cl)c(Cl)c(S(N)(=O)=O)c1` [Dichlorphrnamide], for which the “Luciferase activity (%)” value in test [1] was determined as 100%.

Regarding `C[C@@H]1CCO[C@H]2Cn3cc(C(=O)NCc4ccc(F)cc4F)c(=O)c(O)c3C(=O)N12` [Dolutegravir], the activity at 10 µM in test [2] worked out at 100%. Also, the “inhibition” value in test [1] is given as “completely ineffective; also recorded: not effective”.

Take `COC(=O)N[C@H](C(=O)N1CC2(CC2)C[C@H]1c1nc(-c2ccc3c(c2)C(F)(F)c2cc(-c4ccc5[nH]c([C@@H]6[C@H]7CC[C@H](C7)N6C(=O)[C@@H](NC(=O)OC)C(C)C)nc5c4)ccc2-3)c[nH]1)C(C)C` [Ledipasvir]: in the test with LNCaP-ENR cells [3] (ERPC cells), the “signs of apoptotic features” value is recorded as “did not show any signs of apoptotic features”. In addition, the activity at 10 µM in test [2] was 100%. The TRIB2 protein levels entry at TRIB2 was “neither downregulates TRIB2”. Besides, in test [4], the “in vitro invasion through extracellular matrix” value is recorded as “completely ineffective”. The Cell viability entry in the test on LNCaP-ENR cells [5] was “not”. In the test on LNCaP-ENR cells [6], the soft-agar colony formation entry was “completely ineffective”. Also, the entries for the “inhibition” value in test [1] and in test [1] (listed as ledipasvir) were “completely ineffective” and “no inhibition; also recorded: not effective”, respectively.

`Nc1nc2c(ncn2CCC(CO)CO)c(=O)[nH]1` [Penciclovir]: the activity at 10 µM in test [2] was determined as 97%. For the same compound, the “inhibition” value in test [1] is “not effective”.

`COC(=O)[C@H]1[C@H]2C[C@@H]3c4[nH]c5cc(OC)ccc5c4CCN3C[C@H]2C[C@@H](OC(=O)c2cc(OC)c(OC)c(OC)c2)[C@@H]1OC` [Resperine]: in test [1], the “Luciferase activity (%)” value is given as 91%.

In the case of `COC(=O)C[C@H](NC(=O)[C@H](C)NC(=O)[C@@H](NC(=O)OCc1ccccc1)C(C)C)C(=O)CF` [Z-VAD-FMK] (Cbz-Val-Ala-Asp(OMe)-CH2F), the “DCV treatment-induced apoptosis after pretreatment with caspase inhibitor” value in the test with LNCaP-ENR cells [3] (ERPC cells pretreated) is reported as “inhibited”.

In the case of `CNC(=O)c1ccc(N2C(=S)N(c3ccc(C#N)c(C(F)(F)F)c3)C(=O)C2(C)C)cc1F` [enzalutamide], in the test with Trib2-OE cells, the “response of Trib2-OE cells to enzalutamide” value is on record as “completely resistant”.

Take Niraparib tosylate: the “Luciferase activity (%)” value in test [1] is listed as 93%.

Temsirolmus: the “Luciferase activity (%)” value in test [1] was found to be 94%.
